Assay [1] concerns male Lewis rats. The settings on record: intrapleural with carrageenan, 4 hours.
Method: Acute Anti-Inflammatory Activity in the 4HR Carrageenan Pleurisy Assay in Rats
The Acute Local Carrageenan Pleuritis Assay in Rats is an in vivo model to determine local acute anti-inflammatory activity of compounds based on inhibition of edema formation and neutrophil mobilization into the pleural cavity. In this assay, male Lewis rats of approximately 200 gms were utilized. A carrageenan solution (400 μg/ml) was prepared in water. The experimental compounds were mixed into the carrageenan solution. The carrageenan +/− compounds was injected intrapleurally 0.25 cc/rat. The rats were sacrificed four hours later. The pleural cavity was opened and measured and the exudate extracted. The pleural cavity was washed with 5 cc EDTA solution to capture pleural cells. The total WBCs in the wash were counted and recording. Next the compound inhibition of exudate volume and inflammatory cell influx wash determined. Every experiment included a positive (prednisolone) and negative control group.
Assay [2] deals with Pyricularia oryzae. In kind it is cell-based. Particulars: Pyricularia oryzae (Rice); 18° C., 7 days; growth reduced by at least 90% vs control, OD 405 nm.
The test system of assay [3] is Cochliobolus mijabeanus. Kind of assay: Anti-Fungal Activity in Plant Relevant Molds In Vitro Microtitre Test. In kind it is cell-based. The settings on record: Cochliobolus mijabeanus (Corn); 18° C., 7 days; growth reduced by at least 90% vs control, OD 405 nm. Here is the method: (§1) Compounds III, IV and V were prepared and were subjected to Anti-Fungal Activity in Plant Relevant Molds In Vitro Microtitre Tests.
(§2) A stock solution of each compound was prepared in DMSO at a concentration of 10,000 ppm a.i. Further dilutions were prepared with water. The test was conducted at the following concentrations: 125, 31, 8, […], 0.5 and 0.125 ppm a.i. Spore suspensions of the fungi were prepared. The test was conducted in microtiter plates and for each fungus and each concentration, 3 wells were prepared. Incubation of the inoculated plates was carried out at 18° C. for 7 days. After this time, the optical density of the mycelium developed in each well was measured at 405 nm.
(§3) The data produced allowed an assessment of the IC 90 value (the concentration at which the fungal growth was reduced by at least 90% compared to the control).

Assay [4] has as its system Pyrenophora teres. Described as above. In kind it is cell-based. The settings on record: Pyrenophora teres (Barley); 18° C., 7 days; growth reduced by at least 90% vs control, OD 405 nm. Here is the method: as §1, §2, §3
Assay [5] has as its system Colletotrichum lagenarium. The assay is described as above. In kind it is cell-based. The settings on record: Colletotrichum lagenarium (Mellons); 18° C., 7 days; growth reduced by at least 90% vs control, OD 405 nm. Here is the method: as §1, §2, §3
The test system of assay [6] is Alternaria solani. The description is as above. The class given is cell-based. The settings on record: Alternaria solani (Potato); 18° C., 7 days; growth reduced by at least 90% vs control, OD 405 nm. The method, then: as §1, §2, §3
Assay [7] deals with Botrytis cinerea. Described as above. In kind it is cell-based. Particulars: Botrytis cinerea (Vegetable); 18° C., 7 days; growth reduced by at least 90% vs control, OD 405 nm. Here is the method: as §1, §2, §3
Assay [8] has as its system Septonia tritici. Described as above. The class given is cell-based. Particulars: Septonia tritici (Wheat Leaf); 18° C., 7 days; growth reduced by at least 90% vs control, OD 405 nm. Here is the method: as §1, §2, §3
Assay [9] has as its system Fusarium culmorum. The assay is described as above. The class given is cell-based. Particulars: Fusarium culmorum (Wheat Head); 18° C., 7 days; growth reduced by at least 90% vs control, OD 405 nm. Here is the method:
as §1, §2, §3

The subject of assay [10] is Rhizoctonia solani. The assay is described as above. In kind it is cell-based. The settings on record: Rhizoctonia solani (Rice Sheath); 18° C., 7 days; growth reduced by at least 90% vs control, OD 405 nm. The method, then: as §1, §2, §3
The subject of assay [11] is Phytophthora infestans. The class given is cell-based. Particulars: Phytophthora infestans (Tomato); 18° C., 7 days; growth reduced by at least 90% vs control, OD 405 nm.

Consider `Cc1scc(-c2ccc(C3CCCCC3)cc2)[n+]1C.[I-]` [2,3-dimethyl-4(p-cyclohexylphenyl) thiazolium iodide], for which the “Acute Anti-inflammatory Activity in Rats ED50” value in [1] came to 0.02 mg/rat.

For `CCOc1ccc(-c2csc(C=Cc3ccc(N(CC)CC)cc3)[n+]2C)cc1.[I-]` [2-(4′-diethylaminostyryl)-4-(4″-ethoxyphenyl)-3-methyl-thiazolium iodide], in assay [1], the “Acute Anti-inflammatory Activity in Rats ED50” value is recorded as 0.001 mg/rat.

On to `CCN(CC)c1ccc(C=Cc2scc(-c3ccc(CC(C)C)cc3)[n+]2C)cc1.[I-]` [2-[2-(4-diethylamino-phenyl)vinyl]-4-(4-isobutyl-phenyl)-3-methyl-thiazolium iodide], for which the “Acute Anti-inflammatory Activity in Rats ED50” value in assay [1] is reported as 0.0003 mg/rat.

Regarding `CC[n+]1c(-c2ccc(-c3ccccc3)cc2)csc1C=Cc1ccc(N2CCCC2)cc1.[I-]` [4-(4-biphenyl)-3-ethyl-2-[(4-pyrrolidino)styryl]thiazolium iodide], the “Acute Anti-inflammatory Activity in Rats ED50” value in assay [1] is recorded as 0.001 mg/rat.

Turning to `CC(C)Cc1ccc(-c2csc(C=Cc3ccc(N4CCCC4)cc3)[n+]2C)cc1.[I-]` [4-(4-isobutylphenyl)-3-methyl-2-[2-(4-pyrrolidin-1-yl-phenyl)vinyl]-thiazolium iodide], the “Acute Anti-inflammatory Activity in Rats ED50” value in assay [1] is 0.0004 mg/rat.

Regarding `CCN(CC)c1ccc(/C=C/c2scc(-c3ccc(OC)cc3)[n+]2C)cc1.[I-]` [Formula III], the IC90 was 8 ppm in [2]; 2 ppm in [3]; 8 ppm in assay [4]; 8 ppm in assay [5]; 31 ppm in assay [6]; 2 ppm in assay [7]. Moreover, the IC90 is on record as 2 ppm in [8], 31 ppm in assay [9], 8 ppm in assay [10] and 2 ppm in assay [11].

In the case of `CC(C)c1ccc(C(C)C)c(-c2csc(/C=C/c3ccc(N(C)C)cc3)[n+]2C)c1.[I-]` [Formula IV, E-2-(N,N′-dimethylaminostyryl)-3-methyl-4-(2,5-diisopropylphenyl)thiazolium iodide], the IC90 in assay [2] was found to be 8 ppm; in assay [3], 8 ppm; in assay [4] it was 8 ppm; in assay [5], 8 ppm; in [6], 8 ppm; in assay [7] it was 2 ppm. The IC90 in assay [8] came to 2 ppm; in [9] it was 125 ppm; in assay [10], 8 ppm; in assay [11], 8 ppm. Further, the “Acute Anti-inflammatory Activity in Rats ED50” value in [1] is given as 0.0002 mg/rat.

On to `Cc1cc(-c2csc(/C=C/c3ccc(N(C)C)cc3)[n+]2C)c(C)c(C)c1C.[I-]` [Formula V, E-2-(N,N′-dimethylaminostyryl)-3-methyl-4-(2,3,4,5-tetramethylphenyl)thiazolium iodide], for which the IC90 in assay [2] is reported as 8 ppm; in assay [3] it was 8 ppm; in assay [4], 8 ppm; in assay [5] it was 8 ppm; in [6], 8 ppm; in assay [7], 2 ppm. Moreover, the IC90 was 2 ppm in assay [8], 31 ppm in [9], 8 ppm in assay [10] and 2 ppm in [11].
